Measurements from US20250304563A1, “ACTIVATORS OF EFFECTOR T CELLS” (Orum Therapeutics, Inc., priority 2022, published 2025).

How the values were obtained:
Human primary T cells [1] = experiment: T cell activation: CD69 surface expression by flow cytometry; assay type: cell-based; settings: fold over anti-CD3 stimulated background normalized to Compound 141A; for CD69 10 nM: 10 nM compound; for CD69 100 nM: 100 nM compound; for CD69 1 nM: 1 nM compound
Outline: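 Read-out is flow-cytometric CD69 surface staining, expressed as fold increase over anti-CD3-stimulated background and normalized to Compound 141A. Human pan T cells from PBMC or LeukoPaks were plated on OKT3-coated wells in serum-free XVivo-15. Compound dilutions were added for 48 h at 37° C, 5% CO2.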

Human primary T cells [2] = experiment: T cell activation: secreted IFN-y; assay type: cell-based; settings: 48 hours, fold over background normalized to Compound 141A; for IFN-y 1 nM: 1 nM compound; for IFN-y 10 nM: 10 nM compound; for IFN-y 100 nM: 100 nM compound
Outline: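 Values are binned ranges (A–D) of fold increase over anti-CD3/CD28 background, normalized to a reference compound, for IFN-γ in supernatants measured by bead array. Pan-T cells from donor PBMC or LeukoPaks were stimulated on anti-CD3-coated wells (10 μg/mL coating) in serum-free medium with compound for 48 h at 37 °C.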

[3] = target: Cbl-b (36-427 aa truncated form, N-terminus Avi-tag) (Homo sapiens (Human), UniProt Q13191); experiment: Cbl-b binding: TR-FRET displacement of BODIPY-FL probe
Outline: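 IC50 from loss of terbium–BODIPY-FL TR-FRET signal as compounds compete off a fluorescent Cbl-b inhibitor probe (1 uM) for 1 h at RT. Protein: N-Avi-tagged human Cbl-b 36-427 on streptavidin-terbium, 20 mM HEPES pH 7.5 buffer.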

Human primary T cells [4] = experiment: T cell activation: secreted IL-2; assay type: cell-based; settings: 48 hours, fold over background normalized to Compound 141A; for IL-2 1 nM: 1 nM compound; for IL-2 10 nM: 10 nM compound; for IL-2 100 nM: 100 nM compound
Outline: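 IL-2 values are fold over anti-CD3/CD28 background, normalized to a reference compound and sorted into ranges. They come from supernatants of human pan-T cells captured on anti-CD3-coated plates and exposed 48 h, 37° C., to duplicate compound dilutions, measured with cytometric beads.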

Sequence of Cbl-b (36-427 aa truncated form, N-terminus Avi-tag) (Q13191 36-427): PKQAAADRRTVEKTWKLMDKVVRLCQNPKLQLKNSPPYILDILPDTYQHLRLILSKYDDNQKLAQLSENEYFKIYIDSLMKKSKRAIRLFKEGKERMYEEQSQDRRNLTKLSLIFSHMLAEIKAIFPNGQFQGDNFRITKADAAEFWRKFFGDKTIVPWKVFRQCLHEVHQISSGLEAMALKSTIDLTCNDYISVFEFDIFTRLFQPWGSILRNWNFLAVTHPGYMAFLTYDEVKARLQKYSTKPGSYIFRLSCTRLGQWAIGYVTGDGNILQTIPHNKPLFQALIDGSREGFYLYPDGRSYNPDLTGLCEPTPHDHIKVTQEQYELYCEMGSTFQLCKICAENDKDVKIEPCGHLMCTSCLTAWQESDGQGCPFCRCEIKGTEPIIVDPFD

Row | Structure (SMILES) | CD69 10 nM (Human primary T cells [1]) | CD69 100 nM (Human primary T cells [1]) | IFN-y 1 nM (Human primary T cells [2]) | IFN-y 10 nM (Human primary T cells [2]) | IFN-y 100 nM (Human primary T cells [2]) | IC50 [3] | IL-2 1 nM (Human primary T cells [4]) | IL-2 10 nM (Human primary T cells [4]) | IL-2 100 nM (Human primary T cells [4]) | CD69 1 nM (Human primary T cells [1])
1 | C[C@H]1CCCN(Cc2cc3c(c(C(F)(F)F)c2)CN(c2cc(C4(Cc5nncn5C)COC4)cc(NCCC#N)n2)C3=O)C1.O=CO [Compound 110, 3-[(4-{3-[(4-methyl-1,2,4-triazol-3-yl)methyl]oxetan-3-yl}-6-(6-{[(3S)-3-methylpiperidin-1-yl]methyl}-1-oxo-4-(trifluoromethyl)-3H-isoindol-2-yl)pyridin-2-yl)amino]propanenitrile; formic acid] | B (values between 0.61 and 0.80: range “B;”) | A (values between 0.81 and 1.10: range “A”) | B (values between 0.31 and 1.00: range “B;”) | B (values between 0.31 and 1.00: range “B;”) | B (values between 0.31 and 1.00: range “B;”) | 1 to 5 nM | C (values between 0.10 and 0.30: range “C”) | B (values between 0.31 and 0.79: range “B”) | B (values between 0.31 and 0.79: range “B”) | 
2 | C[C@H]1CCCN(Cc2cc3c(c(C(F)(F)F)c2)CN(c2cc(C4(Cc5nncn5C)COC4)cc(SCC(O)CO)n2)C3=O)C1.O=CO (stereo partly drawn) [Compound 120, 2-{6-[(2,3-dihydroxypropyl)sulfanyl]-4-{3-[(4-methyl-1,2,4-triazol-3-yl)methyl]oxetan-3-yl}pyridin-2-yl}-6-{[(3S)-3-methylpiperidin-1-yl]methyl}-4-(trifluoromethyl)-3H-isoindol-1-one; formic acid] | C (values between 0.30 and 0.60: range “C”) | C (values between 0.30 and 0.60: range “C”) | C (values between 0.10 and 0.30: range “C”) | C (values between 0.10 and 0.30: range “C”) | C (values between 0.10 and 0.30: range “C”) | 20 to 100 nM | C (values between 0.10 and 0.30: range “C”) | C (values between 0.10 and 0.30: range “C”) | C (values between 0.10 and 0.30: range “C”) | 
3 | CSc1cc(CN2CCC[C@H](C)C2)cc2c1CN(c1cc(C3(Cc4nncn4C)COC3)cc(NCCC#N)n1)C2=O.O=C(O)C(F)(F)F [Compound 154, 3-[(4-{3-[(4-methyl-1,2,4-triazol-3-yl)methyl]oxetan-3-yl}-6-(6-{[(3S)-3-methylpiperidin-1-yl]methyl}-4-(methylsulfanyl)-1-oxo-3H-isoindol-2-yl)pyridin-2-yl)amino]propanenitrile; trifluoroacetic acid] | C (values between 0.30 and 0.60: range “C”) | B (values between 0.61 and 0.80: range “B;”) | B (values between 0.31 and 1.00: range “B;”) | B (values between 0.31 and 1.00: range “B;”) | B (values between 0.31 and 1.00: range “B;”) | 1 to 5 nM | D (values between 0.01 and 0.09: range “D.”) | D (values between 0.01 and 0.09: range “D.”) | C (values between 0.10 and 0.30: range “C”) | C (values between 0.30 and 0.60: range “C”)
4 | C[C@H]1CCCN(Cc2cc3c(c(C(F)(F)F)c2)CN(c2cc(C4(Cc5nncn5C)COC4)cc(NCC#N)n2)C3=O)C1 [Compound 119, (S)-2-((4-(3-((4-methyl-4H-1,2,4-triazol-3-yl)methyl)oxetan-3-yl)-6-(6-((3-methylpiperidin-1-yl)methyl)-1-oxo-4-(trifluoromethyl)isoindolin-2-yl)pyridin-2-yl)amino)acetonitrile] | B (values between 0.61 and 0.80: range “B;”) | A (values between 0.81 and 1.10: range “A”) | C (values between 0.10 and 0.30: range “C”) | B (values between 0.31 and 1.00: range “B;”) | B (values between 0.31 and 1.00: range “B;”) | 1 to 5 nM | C (values between 0.10 and 0.30: range “C”) | B (values between 0.31 and 0.79: range “B”) | B (values between 0.31 and 0.79: range “B”) | 
5 | CC#CC(=O)N1CCN(c2cc(C3(Cc4nncn4C)COC3)cc(N3Cc4c(cc(CN5CCC[C@H](C)C5)cc4C(F)(F)F)C3=O)n2)CC1 [Compound 137] | B (values between 0.61 and 0.80: range “B;”) | A (values between 0.81 and 1.10: range “A”) | B (values between 0.31 and 1.00: range “B;”) | B (values between 0.31 and 1.00: range “B;”) | B (values between 0.31 and 1.00: range “B;”) | 5.01 to 20 nM | C (values between 0.10 and 0.30: range “C”) | B (values between 0.31 and 0.79: range “B”) | B (values between 0.31 and 0.79: range “B”) | 
6 | CCNc1cc([C@]2(c3nncn3C)C[C@H](C)C2)cc(N2Cc3ncc(CN4CCC[C@H](C)C4)cc3C2=O)n1 [Compound 176, 6-[6-(ethylamino)-4-[(1r,3s)-3-methyl-1-(4-methyl-1,2,4-triazol-3-yl)cyclobutyl]pyridin-2-yl]-3-{[(3S)-3-methylpiperidin-1-yl]methyl}-7H-pyrrolo[3,4-b]pyridin-5-one] | C (values between 0.30 and 0.60: range “C”) | B (values between 0.61 and 0.80: range “B;”) | C (values between 0.10 and 0.30: range “C”) | B (values between 0.31 and 1.00: range “B;”) | B (values between 0.31 and 1.00: range “B;”) | 5.01 to 20 nM | D (values between 0.01 and 0.09: range “D.”) | C (values between 0.10 and 0.30: range “C”) | B (values between 0.31 and 0.79: range “B”) | C (values between 0.30 and 0.60: range “C”)
7 | CCSc1cc(C2(Cc3nncn3C)COC2)cc(N2Cc3c(cc(CN4CCC[C@H](C)C4)cc3C(F)(F)F)C2=O)n1 [Compound 107, 2-[6-(ethylsulfanyl)-4-{3-[(4-methyl-1,2,4-triazol-3-yl)methyl]oxetan-3-yl}pyridin-2-yl]-6-{[(3S)-3-methylpiperidin-1-yl]methyl}-4-(trifluoromethyl)-3H-isoindol-1-one] | A (values between 0.81 and 1.10: range “A”) | A (values between 0.81 and 1.10: range “A”) | B (values between 0.31 and 1.00: range “B;”) | B (values between 0.31 and 1.00: range “B;”) | B (values between 0.31 and 1.00: range “B;”) | 5.01 to 20 nM | B (values between 0.31 and 0.79: range “B”) | B (values between 0.31 and 0.79: range “B”) | A (between 0.80 and 1.40: range “A”) | 
8 | C[C@H]1CCCN(Cc2cc3c(c(C(F)(F)F)c2)CN(c2cc(C4(Cc5nncn5C)COC4)cc(SCCO)n2)C3=O)C1 [Compound 102, 2-{6-[(2-hydroxyethyl)sulfanyl]-4-{3-[(4-methyl-1,2,4-triazol-3-yl)methyl]oxetan-3-yl}pyridin-2-yl}-6-{[(3S)-3-methylpiperidin-1-yl]methyl}-4-(trifluoromethyl)-3H-isoindol-1-one] | C (values between 0.30 and 0.60: range “C”) | B (values between 0.61 and 0.80: range “B;”) | C (values between 0.10 and 0.30: range “C”) | C (values between 0.10 and 0.30: range “C”) | B (values between 0.31 and 1.00: range “B;”) | 5.01 to 20 nM | C (values between 0.10 and 0.30: range “C”) | C (values between 0.10 and 0.30: range “C”) | B (values between 0.31 and 0.79: range “B”) | 
9 | C[C@H]1CCCN(Cc2cc3c(c(C(F)(F)F)c2)CN(c2cc(C4(Cc5nncn5C)COC4)cc(NCc4c[nH]nn4)n2)C3=O)C1.O=C(O)C(F)(F)F [Compound 182, (S)-2-(6-(((1H-1,2,3-triazol-4-yl)methyl)amino)-4-(3-((4-methyl-4H-1,2,4-triazol-3-yl)methyl)oxetan-3-yl)pyridin-2-yl)-6-((3-methylpiperidin-1-yl)methyl)-4-(trifluoromethyl)isoindolin-1-one; trifluoroacetic acid] | C (values between 0.30 and 0.60: range “C”) | C (values between 0.30 and 0.60: range “C”) | C (values between 0.10 and 0.30: range “C”) | C (values between 0.10 and 0.30: range “C”) | B (values between 0.31 and 1.00: range “B;”) | 5.01 to 20 nM | D (values between 0.01 and 0.09: range “D.”) | D (values between 0.01 and 0.09: range “D.”) | D (values between 0.01 and 0.09: range “D.”) | C (values between 0.30 and 0.60: range “C”)
